According to EP3807270B1, “NOVEL HETEROARYL HETEROCYCLYL COMPOUNDS FOR THE TREATMENT OF AUTOIMMUNE DISEASE” (F. Hoffmann-La Roche AG, priority 2018, dated 2019):

Target: T1, hTLR7 (Homo sapiens, UniProt Q9NYK1)
T1 sequence (Q9NYK1 27-1049): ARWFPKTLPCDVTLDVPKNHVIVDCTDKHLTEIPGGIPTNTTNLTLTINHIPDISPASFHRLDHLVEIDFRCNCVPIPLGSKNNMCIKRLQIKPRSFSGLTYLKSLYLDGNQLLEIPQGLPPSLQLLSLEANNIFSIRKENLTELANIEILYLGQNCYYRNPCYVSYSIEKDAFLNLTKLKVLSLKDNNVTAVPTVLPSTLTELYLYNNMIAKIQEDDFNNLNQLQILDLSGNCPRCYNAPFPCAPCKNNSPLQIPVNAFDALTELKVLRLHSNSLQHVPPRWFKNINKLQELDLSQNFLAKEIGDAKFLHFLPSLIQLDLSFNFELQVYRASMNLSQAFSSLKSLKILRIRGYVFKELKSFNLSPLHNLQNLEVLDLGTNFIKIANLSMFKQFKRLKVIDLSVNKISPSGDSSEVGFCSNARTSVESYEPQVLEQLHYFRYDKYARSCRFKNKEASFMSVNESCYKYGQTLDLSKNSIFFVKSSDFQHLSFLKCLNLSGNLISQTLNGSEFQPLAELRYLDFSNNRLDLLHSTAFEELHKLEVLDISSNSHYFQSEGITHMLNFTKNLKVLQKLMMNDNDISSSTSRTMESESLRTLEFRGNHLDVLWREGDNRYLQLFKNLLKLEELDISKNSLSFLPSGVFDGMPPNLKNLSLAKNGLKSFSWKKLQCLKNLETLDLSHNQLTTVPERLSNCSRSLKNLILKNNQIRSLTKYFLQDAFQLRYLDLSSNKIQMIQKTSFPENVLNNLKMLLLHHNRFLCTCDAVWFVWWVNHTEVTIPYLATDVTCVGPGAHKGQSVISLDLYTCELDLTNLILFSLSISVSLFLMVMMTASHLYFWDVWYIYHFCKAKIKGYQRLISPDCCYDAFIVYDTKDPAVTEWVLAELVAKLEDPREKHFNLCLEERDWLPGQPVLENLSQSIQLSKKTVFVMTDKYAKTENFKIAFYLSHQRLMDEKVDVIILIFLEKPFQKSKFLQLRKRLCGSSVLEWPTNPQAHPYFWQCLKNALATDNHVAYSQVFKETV
Test: HEK293-Blue-hTLR-7 cells assay (SEAP reporter, R848 stimulation)
Format: cell-based
Design: host or cells: HEK293 (HEK-Blue)
Conditions: HEK293-Blue-hTLR7 cells, R848, 20 hrs; read-out: HEK/hTLR7 IC50
Text: A stable HEK293-Blue-hTLR-7 cell line was purchased from InvivoGen (Cat.#: hkb-htlr7, San Diego, California, USA). These cells were originally designed for studying the stimulation of human TLR7 by monitoring the activation of NF-κB. A SEAP (secreted embryonic alkaline phosphatase) reporter gene was placed under the control of the IFN-β minimal promoter fused to five NF-κB and AP-1-binding sites. The SEAP was induced by activating NF-xB and AP-1 via stimulating HEK-Blue hTT,R7 cells with TLR7 ligands. Therefore, the reporter expression was declined by TLR7 antagonist under the stimulation of a ligand, such as R848 (Resiquimod), for incubation of 20 hrs. The cell culture supernatant SEAP reporter activity was determined using QUANTI-Blue™ kit (Cat.#: rep-qb1, Invivogen, San Diego, Ca, USA) at a wavelength of 640 nm, a detection medium that turns purple or blue in the presence of alkaline phosphatase.
HEK293-Blue-hTLR7 cells were incubated at a density of 250,000-450,000 cells/mL in a volume of 170 µL in a 96-well plate in Dulbecco's Modified Eagle's medium (DMEM) containing 4.5 g/L glucose, 50 U/mL penicillin, […], […], 2 mM L-glutamine, 10% (v/v) heat-inactivated fetal bovine serum with addition of 20 µL test compound in a serial dilution in the presence of final DMSO at 1% and 10 µL of 20uM R848 in above DMEM, perform incubation under 37 °C in a CO2 incubator for 20 hrs. Then 20 µL of the supernatant from each well was incubated with 180 µL Quanti-blue substrate solution at 37 °C for 2 hrs and the absorbance was read at 620-655 nm using a spectrophotometer. The signaling pathway that TLR7 activation leads to downstream NF-xB activation has been widely accepted, and therefore similar reporter assay was modified for evaluating TLR7 antagonist.

Row | SMILES | IC50 [nM]
1 | C[C@@H]1CN(c2ccc(C#N)c3ncccc23)C[C@H](CN2CCN(c3ncc4c(n3)CNC4)CC2)O1 [Example 11, 5-[(2S,6R)-2-[[4-(6,7-dihydro-5Hpyrrolo[3,4-d]pyrimidin-2-yl)piperazin-1-yl]methyl]-6-methyl-morpholin-4-yl]quinoline-8-carbonitrile] | 11
2 | C[C@@H]1CN(c2ccc(C#N)c3ncccc23)C[C@H](CN2CCN(c3ncc4c(n3)CNCC4)CC2)O1 [Example 12, 5-[(2R,6S)-2-methyl-6-[[4-(5,6,7,8-tetrahydropyrido[3,4-d]pyrimidin-2-yl)piperazin-1-yl]methyl]morpholin-4-yl]quinoline-8-carbonitrile] | 11
3 | C[C@@H]1CN(c2ccc(C#N)c3ncccc23)C[C@H](CN2CCN(c3ccc4c(c3)CNC4)C(CO)C2)O1 (stereo partly drawn) [Example 13, 5-[(2S,6R)-2-[[3-(hydroxymethyl)-4-isoindolin-5-yl-piperazin-1-yl]methyl]-6-methyl-morpholin-4-yl]quinoline-8-carbonitrile] | 57
4 | C[C@@H]1CN(c2ccc(C#N)c3ncccc23)C[C@H](CN2CCN(c3ccc4c(n3)CCNC4)CC2)O1 [Example 14, 5-[(2R,6S)-2-methyl-6-[[4-(5,6,7,8-tetrahydro-1,6-naphthyridin-2-yl)piperazin-1-yl]methyl]morpholin-4-yl]quinoline-8-carbonitrile] | 11
5 | C[C@@H]1CN(c2ccc(C#N)c3ncccc23)C[C@H](CN2CCN(c3ccc4c(c3)CNC4)CC2CO)O1 (stereo partly drawn) [Example 15, 5-[(2S,6R)-2-[[2-(hydroxymethyl)-4-isoindolin-5-yl-piperazin-1-yl]methyl]-6-methyl-morpholin-4-yl]quinoline-8-carbonitrile] | 73
6 | C[C@@H]1CN(c2ccc(C#N)c3ncccc23)C[C@H](CN2CCN(c3ccc4c(c3)CN(CCO)C4)CC2)O1 [Example 16, 5-[(2S,6R)-2-[[4-[2-(2-hydroxyethyl)isoindolin-5-yl]piperazin-1-yl]methyl]-6-methyl-morpholin-4-yl]quinoline-8-carbonitrile] | 20
7 | C[C@@H]1CN(c2ccc(C#N)c3ncccc23)C[C@H](CN2CCN(c3cnc4c(n3)CCNC4)CC2)O1 [Example 17, 5-[(2R,6S)-2-methyl-6-[[4-(5,6,7,8-tetrahydropyrido[3,4-b]pyrazin-2-yl)piperazin-1-yl]methyl]morpholin-4-yl]quinoline-8-carbonitrile] | 11
8 | C[C@@H]1CN(c2ccc(C#N)c3ncccc23)C[C@H](CN2CCN(c3cc4c(cn3)CNC4)CC2)O1 [Example 18, 5-[(2S,6R)-2-[[4-(2,3-dihydro-1H-pyrrolo[3,4-c]pyridin-6-yl)piperazin-1-yl]methyl]-6-methyl-morpholin-4-yl] quinoline-8-carbonitrile] | 9
9 | C[C@@H]1CN(c2ccc(C#N)c3ncccc23)C[C@H](CN2CCN(c3cc4c(cn3)CNCC4)CC2)O1 [Example 19, 5-[(2R,6S)-2-methyl-6-[[4-(5,6,7,8-tetrahydro-2,7-naphthyridin-3-yl)piperazin-1-yl]methyl]morpholin-4-yl]quinoline-8-carbonitrile] | 9
10 | C[C@@H]1CN(c2ccc(C#N)c3ncccc23)C[C@H](CN2CCN(c3cc4c(cn3)CCNC4)CC2)O1 [Example 20, 5-[(2R,6S)-2-methyl-6-[[4-(5,6,7,8-tetrahydro-2,6-naphthyridin-3-yl)piperazin-1-yl]methyl]morpholin-4-yl]quinoline-8-carbonitrile] | 8
11 | C[C@@H]1CN(c2ccc(C#N)c3ncccc23)C[C@H](CN2CCN(c3cnc4c(c3)CNCC4)CC2)O1 [Example 21, 5-[(2R,6S)-2-methyl-6-[[4-(5,6,7,8-tetrahydro-1,6-naphthyridin-3-yl)piperazin-1-yl]methyl]morpholin-4-yl]quinoline-8-carbonitrile] | 11
12 | C[C@@H]1CN(c2ccc(C#N)c3ncccc23)C[C@H](CN2CCN(c3ccc4c(c3)C(O)CNC4)CC2)O1 (stereo partly drawn) [Example 22, 5-[(2S,6R)-2-[[4-(4-hydroxy-1,2,3,4-tetrahydroisoquinolin-6-yl)piperazin-1-yl]methyl]-6-methyl-morpholin-4-yl]quinoline-8-carbonitrile] | 39
13 | C[C@@H]1CN(c2ccc(C#N)c3ncccc23)C[C@H](CN2CCN(c3cnc4c(c3)CCNC4)CC2)O1 [Example 23, 5-[(2R,6S)-2-methyl-6-[[4-(5,6,7,8-tetrahydro-1,7-naphthyridin-3-yl)piperazin-1-yl]methyl]morpholin-4-yl]quinoline-8-carbonitrile] | 59
14 | C[C@@H]1CN(c2ccc(C#N)c3ncccc23)C[C@H](CN2CCN(c3ccc4c(c3)CCNC4CO)CC2)O1 (stereo partly drawn) [Example 24, 5-[(2S,6R)-2-[[4-[1-(hydroxymethyl)-1,2,3,4-tetrahydroisoquinolin-6-yl]piperazin-1-yl]methyl]-6-methyl-morpholin-4-yl]quinoline-8-carbonitrile] | 32
15 | C[C@@H]1CN(c2ccc(C#N)c3nccnc23)C[C@H](CN2CCN(c3cnc4c(c3)CNC4)CC2)O1 [Example 25, 8-[(2S,6R)-2-[[4-(6,7-dihydro-5H-pyrrolo[3,4-b]pyridin-3-yl)piperazin-1-yl]methyl]-6-methyl-morpholin-4-yl] quinoxaline-5-carbonitrile] | 19
16 | C[C@@H]1CN(c2ccc(C#N)n3ncc(F)c23)C[C@H](CN2CCN(c3cnc4c(c3)CNC4)CC2)O1 [Example 26, 4-[(2S,6R)-2-[[4-(6,7-dihydro-5H-pyrrolo[3,4-b]pyridin-3-yl)piperazin-1-yl]methyl]-6-methyl-morpholin-4-yl]-3-fluoro-pyrazolo[1,5-a]pyridine-7-carbonitrile] | 39
17 | CC1NCc2cc(N3CCN(C[C@H]4CN(c5ccc(C#N)c6ncccc56)C[C@@H](C)O4)CC3)ccc21 (stereo partly drawn) [Example 28, 5-[(2R,6S)-2-methyl-6-[[4-(1-methylisoindolin-5-yl)piperazin-1-yl]methyl]morpholin-4-yl]quinoline-8-carbonitrile] | 11
18 | C[C@@H]1CN(c2ccc(C#N)c3ncccc23)C[C@H](CN2CCN(c3ncc4c(n3)CCNC4)CC2)O1 [Example 29, 5-[(2R,6S)-2-methyl-6-[[4-(5,6,7,8-tetrahydropyrido[4,3-d]pyrimidin-2-yl)piperazin-1-yl]methyl]morpholin-4-yl]quinoline-8-carbonitrile] | 11
19 | C[C@@H]1CN(c2ccc(C#N)c3ncccc23)C[C@H](CN2CCN(c3ccc4c(n3)CNC4)CC2)O1 [Example 30, 5-[(2S,6R)-2-[[4-(6,7-dihydro-5H-pyrrolo[3,4-b]pyridin-2-yl)piperazin-1-yl]methyl]-6-methyl-morpholin-4-yl] quinoline-8-carbonitrile] | 12
20 | C[C@@H]1CN(c2ccc(C#N)c3ncccc23)C[C@H](CN2CCN(c3nc4c(s3)CNCC4)CC2)O1 [Example 31, 5-[(2R,6S)-2-methyl-6-[[4-(4,5,6,7-tetrahydrothiazolo[5,4-c]pyridin-2-yl)piperazin-1-yl]methyl]morpholin-4-yl]quinoline-8-carbonitrile] | 11
21 | C[C@@H]1CN(c2ccc(C#N)c3ncccc23)C[C@H](CN2CCC(Nc3ncc4c(n3)CNC4)C2)O1 (stereo partly drawn) [Example 32, 5-[(2S,6R)-2-[[3-(6,7-dihydro-5H-pyrrolo[3,4-d]pyrimidin-2-ylamino)pyrrolidin-1-yl]methyl]-6-methyl-morpholin-4-yl]quinoline-8-carbonitrile] | 69
